Measured values: paper PMC6718442, “11β-Hydroxysteroid dehydrogenases control access of 7β,27-dihydroxycholesterol to retinoid-related orphan receptor γ” (Journal of Lipid Research, 2019)
Values joined by “and” are separate entries in the source; they are usually repeats but may differ in a detail not shown here. Equal values may be shown once.

Legend:
human 11β-HSD1 = target: T1, human 11β-HSD1 (Homo sapiens, UniProt P28845); assay: 11β-HSD1-dependent metabolism of 7-oxygenated 27OHCs in intact HEK-293 cells expressing 11β-HSD1 and H6PDH; type: cell-based; conditions: for Metabolism by 11β-HSD1 in intact cells (in words): 1 μM substrate, 60 min
T1 construct: expressed in transfected cells
T1 sequence (P28845 whole entry): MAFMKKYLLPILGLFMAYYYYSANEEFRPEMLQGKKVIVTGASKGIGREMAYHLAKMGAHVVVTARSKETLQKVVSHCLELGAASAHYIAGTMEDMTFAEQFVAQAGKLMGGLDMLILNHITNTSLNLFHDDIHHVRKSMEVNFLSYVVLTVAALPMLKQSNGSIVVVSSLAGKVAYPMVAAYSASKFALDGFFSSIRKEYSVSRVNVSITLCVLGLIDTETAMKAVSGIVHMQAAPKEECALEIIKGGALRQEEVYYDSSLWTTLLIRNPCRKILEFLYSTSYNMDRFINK
Procedure: Fifty thousand stably transfected HEK-293 cells expressing either 11β-HSD2 [clone AT8 ([34])] or 11β-HSD1 and hexose-6-phosphate dehydrogenase (H6PDH) [clone HHH7 ([35])] were seeded in poly-L-lysine-coated 96-well plates and incubated for 24 h. H6PDH provides the cofactor NADPH and is required for an efficient oxoreduction reaction by 11β-HSD1 ([36]). The medium was changed to steroid- and phenol red-free DMEM (DMEM SF) for another 2 h and the cells were then treated with 1 μM of 7k27OHC in the presence or absence of 1 μM of T0504 (to inhibit 11β-HSD1) or 0.5 μM of 7β27OHC or 7α27OHC in the presence or absence of 5 μM of glycyrrhetinic acid (GA) (to inhibit 11β-HSD2). Metabolic conversion was determined after 0.5 h for 11β-HSD2 and after 1 h for 11β-HSD1.
Ice-cold acetonitrile:isopropanol (7:3, v/v) mixture containing either 100 nM deuterium-labeled 7β27OHC or corticosterone as internal standards were used to extract oxysterols from cell culture supernatants. Additionally, 1.5% (v/v) of a standard solution of the antioxidant butylated hydroxytoluene (BHT) and the peroxide reducing agent triphenylphosphine (TPP) (10 mg BHT and 25 mg TPP in 10 ml ethanol) was added ([37]). In experiments with SW-620 cells, oxysterols were extracted from cell supernatants and cells. The samples were incubated for 30 min at 4°C and 700 rotations per minute, centrifuged (16,000 g, 10 min, 4°C), and the supernatant evaporated to dryness under nitrogen to minimize oxidation from atmospheric oxygen. After reconstitution in 50 μl of methanol:ultra-pure water (1:1, v/v), the samples were again centrifuged (16,000 g, 10 min, 4°C) and the supernatants analyzed. Data (mean ± SD) were obtained from three independent experiments.
An Agilent 1290 Infinity UHPLC binary solvent delivery system including a temperature controlled autosampler and a column oven coupled to an Agilent 6490 triple quadrupole mass spectrometer with a jet stream electrospray ionization interface (AJS-ESI) (Agilent Technologies) was used to analyze oxysterols. A reversed-phase column (ACQUITY UPLC BEH C18, 1.7 μm, 2.1 × 150 mm; Waters, Wexford, Ireland) heated to 65 ± 0.8°C was applied for analyte separation. The flow-rate was 0.5 ml with solvent A [water/acetonitrile/formic acid (95/5/0.1, v/v/v)] and solvent B [water/acetonitrile/formic acid (5/95/0.1, v/v/v)]. The eluent gradient was set as follows: 0–4.5 min 45–97% B, 4.5–7 min 80% B (washout), and 7–9 min 45% B (column re-equilibration). Methanol/water (75/25, v/v) was used as needle and needle-seat flushing solvent for 10 s after sample aspiration. The samples were stored in the autosampler at 4°C until analysis. […]

mouse 11β-hsd2 = target: T2, mouse 11β-hsd2 (Mus musculus, UniProt P51661); assay: 11β-hsd2 activity in mouse kidney homogenates (corticosterone to 11-dehydrocorticosterone); type: biochemical
T2 construct: The determination of 11β-hsd2 activity in mouse kidney homogenates; from tissue; host or cells: kidney of adult male C57BL6 mice
T2 sequence (P51661 1-386): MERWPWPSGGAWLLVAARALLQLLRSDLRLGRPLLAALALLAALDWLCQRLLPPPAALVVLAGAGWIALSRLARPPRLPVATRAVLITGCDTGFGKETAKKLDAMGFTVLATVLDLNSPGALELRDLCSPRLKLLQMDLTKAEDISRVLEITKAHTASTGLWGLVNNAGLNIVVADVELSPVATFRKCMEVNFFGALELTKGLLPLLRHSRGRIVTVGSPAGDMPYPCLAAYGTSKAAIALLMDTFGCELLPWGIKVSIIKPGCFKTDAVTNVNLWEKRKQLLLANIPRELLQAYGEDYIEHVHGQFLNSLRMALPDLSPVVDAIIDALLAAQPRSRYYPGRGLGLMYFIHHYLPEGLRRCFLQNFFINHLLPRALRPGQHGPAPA
Procedure: The determination of 11β-hsd2 activity in mouse kidney homogenates was conducted as described earlier ([41]). Briefly, for homogenate preparation, kidneys from adult male mice (C57BL6) were snap-frozen and sonicated in homogenization buffer [250 mM sucrose, 10 mM HEPES (pH 7.4); 900 μl for 100 mg of tissue]. Then, the homogenate was centrifuged (2,000 g, 4°C for 10 min) and the total protein concentration determined. The enzymatic reaction was assessed using 0.075 mg/ml total protein of the kidney homogenate in incubation buffer [300 mM NaCl, 20 mM Tris/HCl, 1 mM EDTA, 10% glycerol (pH 7.7)], different concentrations of oxysterols, 50 nM of corticosterone (containing 50 nCi [1,2,6,7-^3H] corticosterone), and 500 μM NAD^+ at 37°C for 20 min. Corticosterone and 11-dehydrocorticosterone were separated using TLC. Substrate conversion was determined by scintillation counting. Data (mean ± SD) were normalized to vehicle control (DMSO) and obtained from at least three independent experiments.

SMILES | Metabolism by 11β-HSD1 in intact cells (in words) (human 11β-HSD1) | Vapp cell intact (human 11β-HSD1; intact HEK-293 cells, substrate concentration 1 μM) | IC50 (mouse 11β-hsd2; 50 nM corticosterone, 20 min, 37°C, read-out: IC50, mouse 11β-hsd2 activity (corticosterone to 11-DHC)) [nM] | Inhibition of mouse 11β-hsd2 activity (in words) (mouse 11β-hsd2)
CC(CO)CCC[C@@H](C)[C@H]1CC[C@H]2[C@@H]3C(=O)C=C4C[C@@H](O)CC[C@]4(C)[C@H]3CC[C@]12C (stereo partly shown) [7k27OHC, 7-keto,27-hydroxycholesterol] | stereo-specifically converted to 7β27OHC | 0.52 ± 0.10 nmol·h^−1·mg total protein^−1 and 0.52 ± 0.10^a nmol·h^−1·mg total protein^−1 | 1650 ± 400 | 
CC(CO)CCC[C@@H](C)[C@H]1CC[C@H]2[C@@H]3[C@@H](O)C=C4C[C@@H](O)CC[C@]4(C)[C@H]3CC[C@]12C (stereo partly drawn) [7β27OHC, 7β,27-dihydroxycholesterol] | neither 7α27OHC nor 7β27OHC was oxidized |  |  | Neither 7β27OHC nor 7α27OHC inhibited
C[C@@H](CO)CCC[C@@H](C)[C@H]1CC[C@H]2[C@@H]3[C@H](O)C=C4C[C@@H](O)CC[C@]4(C)[C@H]3CC[C@]12C [7α27OHC] | neither 7α27OHC nor 7β27OHC was oxidized |  |  | Neither 7β27OHC nor 7α27OHC inhibited
